Measurements taken from ChEMBL document CHEMBL1201862, “PubChem BioAssay data set” (2004).
The source made the active and inactive calls.

Tests used:
Coagulation factor XII = target: T1, Coagulation factor XII (Homo sapiens, UniProt P00748); format: functional;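 further: activated factor XIIa alpha cleaving a fluorogenic AMC peptide substrate; inhibitor potency from loss of enzyme activity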
T1 sequence (P00748 whole entry): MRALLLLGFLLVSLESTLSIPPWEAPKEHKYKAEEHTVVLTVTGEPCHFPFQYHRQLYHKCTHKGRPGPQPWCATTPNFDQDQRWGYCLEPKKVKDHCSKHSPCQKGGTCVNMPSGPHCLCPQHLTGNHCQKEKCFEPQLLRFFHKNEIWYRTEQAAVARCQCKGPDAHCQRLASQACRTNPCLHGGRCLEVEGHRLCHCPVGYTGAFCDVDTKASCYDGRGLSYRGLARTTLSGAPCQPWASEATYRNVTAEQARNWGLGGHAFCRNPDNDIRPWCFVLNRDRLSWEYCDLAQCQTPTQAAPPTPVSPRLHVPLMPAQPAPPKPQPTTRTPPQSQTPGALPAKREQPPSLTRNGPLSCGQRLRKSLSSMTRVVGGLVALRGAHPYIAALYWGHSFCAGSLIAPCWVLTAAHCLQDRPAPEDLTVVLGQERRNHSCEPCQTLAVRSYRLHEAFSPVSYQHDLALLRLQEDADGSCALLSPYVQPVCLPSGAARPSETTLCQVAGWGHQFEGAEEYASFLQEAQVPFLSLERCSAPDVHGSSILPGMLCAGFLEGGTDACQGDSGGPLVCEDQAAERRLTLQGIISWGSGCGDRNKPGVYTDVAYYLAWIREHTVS

Prothrombin = Prothrombin (Homo sapiens, UniProt P00734); assay: Thrombin 1536 HTS Dose Response Confirmation. [Related pubchem assays: 1046 (Thrombin 1536 HTS; hits were confirmed in this assay)]; format: functional
[1] = target: T2, Mannose-6-phosphate isomerase (Homo sapiens, UniProt P34949); assay: human PMI inhibitors, high substrate, primary screen, biochemical, fluorescence intensity, high mannose 6-phosphate (AID 1220)
T2 sequence (P34949 whole entry): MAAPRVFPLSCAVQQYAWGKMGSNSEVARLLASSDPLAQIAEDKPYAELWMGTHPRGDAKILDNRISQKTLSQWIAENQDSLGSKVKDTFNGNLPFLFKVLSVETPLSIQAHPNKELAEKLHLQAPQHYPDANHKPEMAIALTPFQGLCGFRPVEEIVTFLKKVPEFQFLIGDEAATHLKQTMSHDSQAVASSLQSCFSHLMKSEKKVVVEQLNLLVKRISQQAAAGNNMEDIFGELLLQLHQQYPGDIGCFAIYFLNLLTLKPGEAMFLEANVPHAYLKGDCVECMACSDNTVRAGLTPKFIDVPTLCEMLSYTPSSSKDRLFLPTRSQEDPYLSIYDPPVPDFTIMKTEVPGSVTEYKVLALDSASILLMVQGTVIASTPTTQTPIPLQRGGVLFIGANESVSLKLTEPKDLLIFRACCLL

[2] = target: T3, Polyadenylate-binding protein 1 (Homo sapiens, UniProt P11940); assay: PABP1 MLLE–PAM2 binding inhibitor potency, dose response, biochemical, fluorescence polarization, FITC-PAM2 peptide (AID 602259); format: functional; settings: read-out: IC50_Mean
T3 sequence (P11940 whole entry): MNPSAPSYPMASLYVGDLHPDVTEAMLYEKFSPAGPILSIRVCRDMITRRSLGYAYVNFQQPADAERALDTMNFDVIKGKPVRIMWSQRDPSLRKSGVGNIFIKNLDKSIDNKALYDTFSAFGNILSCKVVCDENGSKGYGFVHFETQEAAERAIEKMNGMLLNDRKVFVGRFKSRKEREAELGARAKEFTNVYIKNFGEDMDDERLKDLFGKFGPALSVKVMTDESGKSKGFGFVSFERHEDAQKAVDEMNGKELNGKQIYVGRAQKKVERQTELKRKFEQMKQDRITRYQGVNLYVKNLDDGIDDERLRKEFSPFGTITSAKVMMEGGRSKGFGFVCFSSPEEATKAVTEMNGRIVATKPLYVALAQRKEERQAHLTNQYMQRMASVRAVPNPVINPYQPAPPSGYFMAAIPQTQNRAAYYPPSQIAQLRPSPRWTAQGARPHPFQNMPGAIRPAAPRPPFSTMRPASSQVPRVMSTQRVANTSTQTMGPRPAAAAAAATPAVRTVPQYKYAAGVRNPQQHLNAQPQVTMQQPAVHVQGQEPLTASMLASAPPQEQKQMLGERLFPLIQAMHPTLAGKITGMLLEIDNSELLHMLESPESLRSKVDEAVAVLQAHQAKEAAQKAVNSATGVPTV

[3] = target: T3, Polyadenylate-binding protein 1; assay: PABP1 MLLE–PAM2 interaction inhibitors, dose response, miRNA deadenylation inhibitor project, biochemical, fluorescence polarization, Cy5-PAM2 peptide, secondary (AID 602260); format: functional; settings: read-out: IC50_Mean
Nonstructural protein 1 = Nonstructural protein 1 (Influenza A virus, UniProt Q194T2); format: functional, Influenza A virus (A/California/07/2009(H1N1))
Chain of Nonstructural protein 1 (Q194T2 whole entry): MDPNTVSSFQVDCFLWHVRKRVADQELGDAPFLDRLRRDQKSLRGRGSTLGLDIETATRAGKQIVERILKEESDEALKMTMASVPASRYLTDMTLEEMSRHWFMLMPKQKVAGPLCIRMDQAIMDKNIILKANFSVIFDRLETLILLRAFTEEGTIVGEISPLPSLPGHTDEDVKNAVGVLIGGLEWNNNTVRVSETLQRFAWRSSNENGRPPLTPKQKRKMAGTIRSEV

[4] = target: T4, Short transient receptor potential channel 4 (Mus musculus, UniProt Q9QUQ5); assay: mouse TRPC4 channel inhibitors, dose response, cell-based, HEK293 TRPC4/mu-opioid, Fluo-4 calcium (AID 434942); format: functional;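 further: potency of inhibitors blocking the TRPC4 calcium response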
T4 sequence (Q9QUQ5 whole entry): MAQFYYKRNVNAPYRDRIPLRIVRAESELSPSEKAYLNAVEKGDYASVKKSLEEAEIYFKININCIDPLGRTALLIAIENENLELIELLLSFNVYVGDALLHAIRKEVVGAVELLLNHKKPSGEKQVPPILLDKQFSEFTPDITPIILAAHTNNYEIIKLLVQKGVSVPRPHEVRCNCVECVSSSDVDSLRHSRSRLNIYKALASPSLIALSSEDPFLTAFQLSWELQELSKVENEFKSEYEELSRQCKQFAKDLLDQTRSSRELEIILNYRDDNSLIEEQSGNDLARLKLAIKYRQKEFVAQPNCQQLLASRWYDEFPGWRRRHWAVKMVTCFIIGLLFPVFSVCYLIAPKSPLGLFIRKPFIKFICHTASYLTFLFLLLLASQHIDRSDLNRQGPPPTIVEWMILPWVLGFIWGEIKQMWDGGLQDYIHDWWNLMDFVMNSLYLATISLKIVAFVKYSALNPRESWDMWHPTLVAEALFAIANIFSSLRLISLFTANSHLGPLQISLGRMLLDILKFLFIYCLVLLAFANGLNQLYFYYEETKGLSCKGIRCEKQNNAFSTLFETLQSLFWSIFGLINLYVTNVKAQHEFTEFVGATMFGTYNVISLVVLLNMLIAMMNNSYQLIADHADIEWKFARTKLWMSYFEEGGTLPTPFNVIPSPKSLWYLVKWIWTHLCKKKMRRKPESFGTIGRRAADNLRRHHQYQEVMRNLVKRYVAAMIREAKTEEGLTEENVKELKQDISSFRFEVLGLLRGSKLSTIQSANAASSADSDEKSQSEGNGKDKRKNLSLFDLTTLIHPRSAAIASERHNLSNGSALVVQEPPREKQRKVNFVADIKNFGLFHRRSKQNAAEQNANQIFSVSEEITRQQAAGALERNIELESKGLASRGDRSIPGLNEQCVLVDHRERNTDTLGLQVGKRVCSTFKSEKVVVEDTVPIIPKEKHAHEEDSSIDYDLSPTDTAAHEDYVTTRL

[5] = NIH-3T3 fibroblast cytotoxicity, dose response, cytotoxicity control, cell-based, fluorescence, Alamar Blue, secondary assay (AID 2327); format: functional;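 further: NIH-3T3 mouse fibroblasts cultured with fluconazole at 8 µg/mL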
[6] = test system: Streptococcus sp. 'group A'; assay: growth inhibition of control SK(-) GAS strain, dose response, counter-screen for streptokinase expression inhibitor project, luminescence, kanamycin, BacTiterGlo, confirmation (AID 1900); format: functional, organism-based
[7] = inhibitors of intracellular T. cruzi replication, confirmation, NIH3T3 host cells, beta-gal luminescence (AID 2044); format: functional, cell-based;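 further: intracellular parasites grown in NIH/3T3 mouse fibroblasts as host cells; luminescent beta-galactosidase reporter signal from transgenic T. cruzi replicating inside host cells; inhibitors lower the luminescence signal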
Vero = assay: cells; format: functional; settings: Chlorocebus sabaeus
Streptococcus = assay: Group A Streptococcus viability loss, dose response, counter-screen for streptokinase expression inhibitor project, luminescence, BacTiterGlo (AID 1915); format: functional, organism-based;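 further: potency for reduction of bacterial viability or growth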
[8] = C. albicans growth with fluconazole, confirmation, fluorescence, retest (AID 2467); format: functional, cell-based
H9c2 = assay: cells; format: functional, cell-based; settings: Rattus norvegicus, H9c2, Myocardium;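 further: confirmatory concentration-response retest of ultra-high-throughput screening hits for modulation of myocardial damage; cell death induced by hydrogen peroxide oxidative stress; compound pretreatment for 60 min then peroxide exposure for 2 h; potency is for protecting the cells against peroxide damage rather than for killing them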
[9] = cytotoxicity toward NIH3T3 fibroblasts, dose response, counter-screen, cell-based, ATP luminescence, mouse fibroblasts (AID 2010); format: functional;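 further: cells exposed to compound for about 90 hours before reading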
Cytochrome P450 3A4 = Cytochrome P450 3A4 (Homo sapiens, UniProt P08684);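 further: CYP3A4 tested as one member of a cytochrome P450 panel screen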
Chain of Cytochrome P450 3A4 (P08684 whole entry): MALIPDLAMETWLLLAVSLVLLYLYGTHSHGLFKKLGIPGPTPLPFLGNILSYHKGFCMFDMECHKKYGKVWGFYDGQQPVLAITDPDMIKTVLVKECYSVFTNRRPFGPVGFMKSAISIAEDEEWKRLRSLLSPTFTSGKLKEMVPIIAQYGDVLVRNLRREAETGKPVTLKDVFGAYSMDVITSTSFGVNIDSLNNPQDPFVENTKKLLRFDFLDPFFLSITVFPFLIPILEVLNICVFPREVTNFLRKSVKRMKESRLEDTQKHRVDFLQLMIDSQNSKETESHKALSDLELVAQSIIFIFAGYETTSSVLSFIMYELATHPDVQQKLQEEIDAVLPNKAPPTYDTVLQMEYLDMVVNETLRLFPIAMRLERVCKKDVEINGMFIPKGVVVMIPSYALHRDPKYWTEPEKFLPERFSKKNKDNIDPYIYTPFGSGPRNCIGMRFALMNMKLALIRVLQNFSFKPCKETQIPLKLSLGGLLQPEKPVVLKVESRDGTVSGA

cells [10] = format: functional, cell-based
cells [11] = format: functional, cell-based; remark: listed apart in the source
Cytochrome P450 2C9 = Cytochrome P450 2C9 (Homo sapiens, UniProt P11712); settings: Potency
Chain of Cytochrome P450 2C9 (P11712 whole entry): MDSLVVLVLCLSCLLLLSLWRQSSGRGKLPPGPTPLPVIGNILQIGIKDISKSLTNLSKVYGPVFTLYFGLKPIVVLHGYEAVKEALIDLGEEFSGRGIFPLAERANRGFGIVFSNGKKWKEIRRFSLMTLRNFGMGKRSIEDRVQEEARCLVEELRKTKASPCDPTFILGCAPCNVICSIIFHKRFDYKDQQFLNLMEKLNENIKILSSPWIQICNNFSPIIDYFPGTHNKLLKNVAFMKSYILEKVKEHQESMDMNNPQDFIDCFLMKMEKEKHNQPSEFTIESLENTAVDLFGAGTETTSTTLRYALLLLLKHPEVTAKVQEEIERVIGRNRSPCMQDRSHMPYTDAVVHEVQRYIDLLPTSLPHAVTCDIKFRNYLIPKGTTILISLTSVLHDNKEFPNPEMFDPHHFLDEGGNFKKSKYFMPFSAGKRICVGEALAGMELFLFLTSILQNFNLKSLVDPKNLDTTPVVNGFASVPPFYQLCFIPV

For `O=C(COC(=O)c1ccc(O)cc1)NCCCc1ccccc1`, the IC50 (Coagulation factor XII) was > 50 µM (inactive) and the IC50 (Prothrombin) was > 50 µM (not active).

With `N#Cc1cc2c(nc1S)CCCCCC2` the IC50 [1] was > 50 µM (not active), the IC50 [2] was > 66 µM (inactive) and the IC50 [3] was > 66 µM (inactive).

In the case of `CC(C)(C)Nc1c([N+](=O)[O-])ccc2c1=NC1(CCCCC1)[N+]=2[O-]`, the IC50 [1] is reported as > 50 µM (not active) and the IC50 (Nonstructural protein 1) is reported as 18.1 µM (active).

For `COc1cc(NS(=O)(=O)c2ccc3ccccc3c2)c2ncccc2c1`, the EC50 [4] was 0.668 µM (active), the EC50 [5] was > 160 µM (inactive) and the EC50 [6] was 0.412 µM (active). The EC50 [7] was 0.342 µM (active), the CC50 (Vero) was > 25 µM (active) and the EC50 (Streptococcus) was 7.28 µM (active). For the same molecule, the EC50 [8] was 3.98 µM (active), the IC50 (H9c2) was > 79 µM (inactive) and the EC50 [9] was 1.09 µM (active).

In the case of `CCCc1nnc(NC(=O)CCC(=O)N2CCN(c3ccccn3)CC2)s1`, the AC50 (Cytochrome P450 3A4) is reported as “inconclusive”.

In the case of `CC(C)C(NC(=O)c1ccc(C(C)(C)C)cc1)C(=O)NCC(c1ccccc1)N(C)C` (stereo not given), the EC50 [4] is reported as 0.168 µM (active).

With `Cc1onc(-c2c(F)cccc2Cl)c1C(=O)N(C)CC(=O)Nc1cccc(F)c1` the EC50 [4] was 2.11 µM (active).

With `COc1cc2c(cc1OC)C(C)N(S(=O)(=O)c1ccc(Cl)nc1)CC2` (stereo not given) the EC50 (cells [10]) was > 350 µM (not active) and the EC50 (cells [11]) was > 350 µM (not active).

In the case of `O=C(c1ccc(F)cc1)N(Cc1cccs1)C1CCS(=O)(=O)C1` (stereo not given), the EC50 (cells [10]) is reported as > 350 µM (not active) and the EC50 (cells [11]) is reported as > 350 µM (not active).

In the case of `C=CCOC(=O)C(C(C)=O)C(NC(=O)OC)c1cccc(F)c1` (stereo not given), the AC50 (Cytochrome P450 2C9) is reported as 1 µM (inconclusive).

With `NCCC[C@@H](CC(=O)N[C@@H]1CCCC[C@H]1C(=O)N[C@H](CC(=O)N[C@@H](CCC(=O)O)CC(=O)O)Cc1c[nH]c2ccccc12)NC(=O)C[C@H](CO)NC(=O)[C@@H]1CCCC[C@H]1N` the AC50 (Cytochrome P450 2C9) was 31.6 µM (inconclusive).
